{"source": "paper PMC8387461", "about": "“T cell receptor recognition of hybrid insulin peptides bound to HLA-DQ8” (Nature Communications, 2021)", "test_system": "SKW-3 A1.9 TCR cells", "assay": "CD69 upregulation, SKW-3 A1.9 TCR cells", "assay_type": "cell-based, human", "conditions": "CD69 MFI, flow cytometry; peptide-pulsed BLCL 9031, 20 h", "description": "For TCR transduced SKW-3 T cell lines (SKW-3-TCR), response to antigen was determined using flow cytometry to assess the level of upregulation of the T cell activation marker CD69. One hundred thousand BLCL 9031 cells (HLA-DQ8 + : HLA-DQA*03:01:01, HLA-DQB1*03:02) as APCs were incubated at 37 °C, 5% CO2 for 24 h with increasing concentrations of synthesised HIP ([…]; GLBiochem) or native C-peptide ([…]; GLBiochem) or 50 μg DQ8-glia-α1 (control) in 96 well round-bottomed plates. […] Before data acquisition, the samples were resuspended in 100 μl of FACS buffer and analysed via flow cytometry (LSR II; BD Biosciences; BD FACSDiva-8.0.1 software). Collected data were analysed using Flowjo v10.6.0 (FlowJo), and then Prism 9 (GraphPad Software). […] Using these settings, the median fluorescence intensity (MFI) corresponding to the relative level of CD69 expressed on the SKW-3-TCR.TCR cell lines was determined using Flowjo v10.6.0 software. The MFI of CD69 were analysed by using Prism 9 (GraphPad Software). […] Statistical significance was determined using P-values generated by t-test or one-way ANOVA multiple comparison of the MFI of no-peptide-stimulated SKW-3-TCR T cells versa the MFI of peptide-stimulated SKW-3-TCR T cells. […]\nexpression. The fold increase in MFI CD69 expression was calculated by dividing the average MFI CD69 from each sample by the average MFI CD69 from BLCL 9031 (no […]", "data": [{"sequence": "GQVELGGGNAVEVLK [HIP]", "values": [{"measurement": "preference for HIP over C-peptide", "result": 25, "unit": "fold"}]}]}
